Assay results from patent US9605004B2, “Chemical compounds” (SYNGENTA LIMITED, priority 2013, dated 2017).

What was measured:
[1] = tested on: a variety of test species; experiment: Post-emergence herbicidal activity (Example 8b, Table 3); format: in vivo; settings: application post-emergence, rate 1000 g/ha, evaluated after 13 days, scale 0-5; for Herbicidal damage score, ABUTH: Abutilon theophrasti; for Herbicidal damage score, ALOMY: Alopecurus myosuroides; for Herbicidal damage score, AMARE: Amaranthus retroflexus; for Herbicidal damage score, ECHCG: Echinochloa crus-galli; for Herbicidal damage score, SETFA: Setaria faberi; for Herbicidal damage score, ZEAMX: Zea mays
Outline: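 Foliar application to 8-day-old plants using a 0.5% Tween 20 acetone/water carrier; phytotoxicity is scored visually from 0 to 5 after 13 days of growth at 24/16 °C day/night.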

[2] = tested on: a variety of test species; experiment: Pre-emergence herbicidal activity (Example 8a, Table 2); format: in vivo; set-up: key: 0 = no damage to plant, 5 = total damage to plant; settings: application pre-emergence, rate 1000 g/ha, evaluated after 13 days
Outline: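 Compounds are applied pre-emergence as an aqueous spray, formulated in 50:50 acetone/water containing 0.5% Tween 20, to pots sown one day earlier. Plants grow in a controlled glasshouse and are scored 13 days later for damage from 0 to 5.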

Compound	Herbicidal damage score, ABUTH [1]	Herbicidal damage score, ALOMY [1]	Herbicidal damage score, AMARE [1]	Herbicidal damage score, ECHCG [1]	Herbicidal damage score, SETFA [1]	Herbicidal damage score, ZEAMX [1]	Pre-emergence herbicidal activity, damage score ABUTH [2]	Pre-emergence herbicidal activity, damage score ALOMY [2]	Pre-emergence herbicidal activity, damage score AMARE [2]	Pre-emergence herbicidal activity, damage score ECHCG [2]	Pre-emergence herbicidal activity, damage score SETFA [2]	Pre-emergence herbicidal activity, damage score ZEAMX [2]
CC1=C(Cl)C(=O)N(c2cc(C(C)(C)C)n(C)n2)C1OC(=O)Oc1ccccc1 (stereo not drawn) [Compound F3]	5	5	5	5	5	5	5	3	5	5	4	3
CC1=C(Cl)C(=O)N(c2cc(C(C)(C)C)n(C)n2)C1OC(=O)OCC(C)C (stereo not drawn) [Compound F4]	5	5	5	5	5	5	5	3	5	5	4	2
CC1=C(Cl)C(=O)N(c2cc3n(n2)CCC3(C)C)C1O (stereo not drawn) [Compound G2]	5	5	5	5	5	4	5	4	5	5	5	4
CC1=C(Cl)C(=O)N(c2cc3n(n2)CCCC3(C)C)C1O (stereo not drawn) [Compound G4]	5	5	5	5	5	5	5	4	5	5	5	3
CC1=C(Cl)C(=O)N(c2cc3n(n2)CCC3(C)C)C1O (stereo not drawn) [Compound G8]	5	5	5	5	5	4	5	4	5	5	5	4
CC1=C(Cl)C(=O)N(c2cc3n(n2)CCCC3(C)C)C1O (stereo not drawn) [Compound G9]	5	5	5	5	5	5	5	4	5	5	5	3
CC1=C(Cl)C(=O)N(c2cc3n(n2)CCSC3(C)C)C1O (stereo not drawn) [Compound G10]	5	5	5	5	5	4	5	3	5	5	4	4
CC1=C(Cl)C(=O)N(c2cc3n(n2)CCS(=O)(=O)C3(C)C)C1O (stereo not drawn) [Compound G11]	5	5	5	5	5	3	5	4	5	5	5	4
COC1=C(C)C(O)N(c2cc(C(C)(C)C)n(C)n2)C1=O (stereo not drawn) [Compound H1, 1-(5-tert-butyl-1-methyl-pyrazol-3-yl)-2-hydroxy-4-methoxy-3-methyl-2H-pyrrol-5-one]	5	5	5	5	5	4	5	4	5	5	5	4
COC1=C(C)C(O)N(c2cc(C(C)(C)C)n(C)n2)C1=O (stereo not drawn) [Compound H2]	–	–	–	–	–	4	–	4	–	–	–	4
COC1=C(C)C(O)N(c2nn(C)c(C(C)(C)C)c2C#N)C1=O (stereo not drawn) [Compound H3]	5	5	4	5	5	3	4	4	4	5	4	1
COC1=C(C)C(O)N(c2cc(C(F)(F)F)n(C)n2)C1=O (stereo not drawn) [Compound H4]	5	5	5	5	5	5	5	4	5	5	5	4
CC1=C(Br)C(=O)N(c2cc(C(C)(C)C)[nH]n2)C1O (stereo not drawn) [Compound I1]	5	4	5	5	5	5	5	4	5	5	4	3
CC1=C(Br)C(=O)N(c2cc(C(C)(C)C)n(C)n2)C1O (stereo not drawn) [Compound J1]	5	5	5	5	5	4	5	3	5	5	4	2
CC1=C(Br)C(=O)N(c2cc(C(C)(C)C)n(C)n2)C1O (stereo not drawn) [Compound J2]	5	5	5	5	5	4	5	3	5	5	4	2
CC(C)=CCc1cc(N2C(=O)C(Br)=C(C)C2O)nn1C (stereo not drawn) [Compound J3]	4	1	2	2	4	0	0	0	0	0	0	0
